# Experimental data reported in patent publication US10221161B2, “Inhibitors of plasma kallikrein” (Kalvista Pharmaceuticals Limited, priority 2013, dated 2019).
# Key:
# Human KLK1 = Human KLK1 (Homo sapiens (Human), UniProt P06870); assay: Determination of the IC50 for KLK1 (fluorogenic substrate H-DVal-Leu-Arg-AFC); type: biochemical; conditions: human KLK1, 37° C.
# Procedure, shortened: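 Inhibition of human KLK1 (Callbiochem) was measured in vitro following standard published methods. The enzyme was incubated at 37° C. with the fluorogenic substrate H-DVal-Leu-Arg-AFC across a range of test compound concentrations. Residual activity, taken as the initial reaction rate, was followed by […], and IC50 values were calculated.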
# Human plasma kallikrein = Human plasma kallikrein (Homo sapiens (Human), UniProt P03952); assay: Determination of the IC50 for plasma kallikrein (fluorogenic substrate H-DPro-Phe-Arg-AFC); type: biochemical; conditions: 37° C., read-out: IC50 (human PKal)
# Sequence of Human plasma kallikrein (P03952 391-638 limits assumed): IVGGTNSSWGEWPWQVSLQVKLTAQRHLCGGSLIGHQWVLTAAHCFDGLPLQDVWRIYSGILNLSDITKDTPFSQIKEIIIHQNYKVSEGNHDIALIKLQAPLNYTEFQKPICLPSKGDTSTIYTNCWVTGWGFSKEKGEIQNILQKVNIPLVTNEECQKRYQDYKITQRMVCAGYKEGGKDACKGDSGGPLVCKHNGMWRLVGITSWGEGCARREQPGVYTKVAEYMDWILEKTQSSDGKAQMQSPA
# Sequence of Human plasma kallikrein (P03952 20-390 partner limits assumed): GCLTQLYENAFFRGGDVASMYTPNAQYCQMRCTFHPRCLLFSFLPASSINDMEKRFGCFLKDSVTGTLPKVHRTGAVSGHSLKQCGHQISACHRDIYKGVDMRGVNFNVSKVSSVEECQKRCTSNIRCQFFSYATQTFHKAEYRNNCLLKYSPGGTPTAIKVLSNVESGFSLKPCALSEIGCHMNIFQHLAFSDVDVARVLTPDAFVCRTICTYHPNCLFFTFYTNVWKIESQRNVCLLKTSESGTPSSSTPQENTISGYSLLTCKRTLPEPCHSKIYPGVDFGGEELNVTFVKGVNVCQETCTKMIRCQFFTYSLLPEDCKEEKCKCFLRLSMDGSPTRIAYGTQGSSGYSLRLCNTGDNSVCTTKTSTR
# Experimental: Determination of the IC50 Plasma Kallikrein Plasma kallikrein inhibitory activity in vitro was determined using standard published methods (see e.g. Johansen et al., Int. J. Tiss. […] Shori et al., Biochem. Pharmacol., 1992, 43, 1209; Stürzebecher et al., Biol. Chem. Hoppe-Seyler, 1992, 373, 1025). Human plasma kallikrein (Protogen) was incubated at 37° C. with the fluorogenic substrate […] and various concentrations of the test compound.
# Sequence of Human KLK1 (P06870 25-262): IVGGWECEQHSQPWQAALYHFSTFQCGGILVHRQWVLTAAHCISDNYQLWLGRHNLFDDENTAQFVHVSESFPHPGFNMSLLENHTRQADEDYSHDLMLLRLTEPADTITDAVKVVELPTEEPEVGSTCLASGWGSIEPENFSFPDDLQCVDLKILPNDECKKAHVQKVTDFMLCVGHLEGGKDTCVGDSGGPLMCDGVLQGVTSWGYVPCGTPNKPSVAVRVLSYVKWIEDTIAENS
Compound,IC50 (Human KLK1) [µM],IC50 (Human plasma kallikrein) [nM]
"Cc1cnn(Cc2ccc(Cc3ccnc(C(=O)NCc4ccc5c(N)nccc5c4)c3)cc2)c1 [Example 3, N-[(1-Aminoisoquinolin-6-yl)methyl]-4-({4-[(4-methylpyrazol-1-yl)methyl]phenyl}methyl)pyridine-2-carboxamide]",> 40,159
"Nc1nccc2cc(CNC(=O)c3cncc(Cc4ccc(N5CCC(C(=O)O)C5)nc4)c3)ccc12 (stereo not shown) [Example 75, 1-{5-[(5-{[(1-Aminoisoquinolin-6-yl)methyl]carbamoyl}pyridin-3-yl)methyl]pyridin-2-yl}pyrrolidine-3-carboxylic acid]",> 10,6120
"Nc1nccc2cc(CNC(=O)c3cncc(Cc4ccc(N5CCCC5)nc4)c3)ccc12 [Example 55, N-[(1-Aminoisoquinolin-6-yl)methyl]-5-{[6-(pyrrolidin-1-yl)pyridin-3-yl]methyl}pyridine-3-carboxamide]",4.96,103

# Now those with a lower IC50 (Human KLK1), led by results:
IC50 (Human KLK1) [µM],IC50 (Human plasma kallikrein) [nM],Compound
2.49,621,"Cc1ccc2cc(Cc3cnc(O)c(C(=O)NCc4ccc5c(N)nccc5c4)c3)ccc2n1 [Example 20, N-[(1-Aminoisoquinolin-6-yl)methyl]-5-[(2-methylquinolin-6-yl)methyl]-2-oxo-1H-pyridine-3-carboxamide]"
2.43,579,"CN(C)[C@@H]1CCN(c2ccc(Cc3cncc(C(=O)NCc4ccc5c(N)nccc5c4)c3)cn2)C1 (stereo in doubt) [Example 69, N-[(1-Aminoisoquinolin-6-yl)methyl]-5-({6-[3-(dimethylamino)pyrrolidin-1-yl]pyridin-3-yl}methyl)pyridine-3-carboxamide]"
